Laboratory results from publication PMC10290391, “Targeted degradation of ⍺-synuclein aggregates in Parkinson’s disease using the AUTOTAC technology” (Molecular Neurodegeneration, 2023).
Values joined by “and” are separate entries in the source; they are usually repeats but may differ in a detail not shown here. Equal values may be shown once. “Also recorded” adds a separate entry of the source.

Tests used:
[1] = test system: α-syn aggregates; test: Triton X-100 fractionation assay in SH-SY5Y α-syn A53T cells transduced with α-syn PFFs; format: cell-based, human
Procedure: Recombinant human α-syn (1–140) were obtained from NKMAX (SNA2001L). In vitro fibrillization was performed by diluting recombinant α-syn monomers to 1 mg/mL in sterile PBS, then incubating at 37 °C with constant agitation at 1,000 rpm for seven days. The fibrillization was verified by thioflavin T and sedimentation assays. The ability to form phospho-α-syn (S129) was also assessed by immunocytochemistry. In addition, to determine whether the generated PFFs act as seeds to accumulate endogenous α-syn, an adenovirus that expresses c-Myc-His-tagged human α-syn (gifted from lab of S.J.L) was used to infect cultured cells at an MOI of 10, followed by a fractionation assay. The administration of PFFs into 293A cells was done with protein delivery reagent (BioPORTER QuikEase Protein Delivery Kit, Sigma) following the provider’s instruction. The mouse α-syn PFFs were obtained from StressMarq (SPR-324). […]
(§1) For the separation of Triton X-100 soluble and insoluble fractions for monitoring α-syn, cells were washed with PBS and lysed in Triton X-100 buffer (50 mM Tris / 150 mM NaCl / 100 mM EDTA / 1% Triton X-100, pH 7.6) containing protease and phosphatase inhibitors for 30 min on ice. […] Immunoreactive bands were detected using ECL reagents (Thermo Fisher Scientific, 32,106). […] Densitometry of developed bands was analyzed with ImageJ (NIH, Bethesda).

[2] = test system: LAMP1+ lysosomes; test: Immunocytochemistry of LAMP1+ lysosomes in SH-SY5Y α-syn A53T cells transduced with PFFs; format: cell-based, human; conditions: 1 μM, 6 h, with Baf. A1
Procedure: Cells were fixed with 4% paraformaldehyde (PFA) for 20 min at room temperature, followed by permeabilization with 0.1% Triton X-100 buffer for 15 min. The cells were blocked with 2% bovine serum albumin (BSA) in PBS for 1 h at room temperature. Then, the cells were incubated with primary antibodies diluted in the blocking buffer overnight at 4 °C. After washing with PBS, the slides were incubated with AlexaFluor-conjugated secondary antibodies for 1 h at room temperature. After mounting the slides with mounting solution containing DAPI, the images were captured on an LSM700 confocal microscopy (Carl Zeiss).

[3] = biological target: T1, p62 (Mus musculus, UniProt Q64337); test: Western blot in wild-type and p62-/- MEFs transduced with α-syn PFFs; format: cell-based; conditions: 1 μM, 12 h
T1 construct: endogenous in cells; host or cells: wild-type and p62-/- MEFs (Keiji Tanaka's laboratory)
T1 sequence (Q64337 whole entry): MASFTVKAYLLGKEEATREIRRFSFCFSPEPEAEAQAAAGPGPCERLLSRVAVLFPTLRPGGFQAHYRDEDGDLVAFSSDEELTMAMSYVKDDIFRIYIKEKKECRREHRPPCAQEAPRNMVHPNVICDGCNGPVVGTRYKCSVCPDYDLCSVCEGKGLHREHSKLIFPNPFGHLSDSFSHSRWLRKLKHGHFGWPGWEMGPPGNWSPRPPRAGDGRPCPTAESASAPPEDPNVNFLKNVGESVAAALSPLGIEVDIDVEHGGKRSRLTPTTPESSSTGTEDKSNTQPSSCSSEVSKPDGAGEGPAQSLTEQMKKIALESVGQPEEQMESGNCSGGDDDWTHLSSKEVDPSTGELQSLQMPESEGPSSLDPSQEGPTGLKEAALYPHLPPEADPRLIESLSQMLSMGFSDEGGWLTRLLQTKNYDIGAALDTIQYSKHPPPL
From the text: Wild type human neuroblastoma cells (SH-SY5Y) and Hela were obtained from Korean Cell Line Bank. SH-SY5Y α-syn A53T cells, COS7 cells and 293A cell line were kindly gifted from S.J.L. lab. COS7 cells, 293A cells, wild-type and p62^−/− MEF cells, and wild type or A53T mutant α-syn SH-SY5Y cells were maintained in Dulbecco’s Modified Eagle’s Medium (DMEM) containing 10% fetal bovine serum (FBS). Wild-type and p62^−/− MEFs were obtained from Keiji Tanaka’s laboratory (Tokyo Metropolitan Research Institute, Japan). Cells were incubated at 37 °C in a 5% CO2 humidified chamber. The differentiation of SH-SY5Y α-syn A53T cells was done by 10 µM retinoic acid for 7 days prior to subsequent experiments.
as §1, with “ice. The lysates were centrifuged at 12,000 rpm for 30 min, and the soluble supernatant was taken. The remaining pellets were washed with Triton X-100 buffer, followed by centrifugation at 12,000 rpm for 20 min.” for “ice.”

[4] = test system: cleaved-PARP1; test: Western blot of cleaved-PARP1 in h-α-syn PFF-transduced HEK293A cells; format: cell-based, human; conditions: 1 μM, 24 h
Procedure: For the separation of Triton X-100 soluble and insoluble fractions for monitoring α-syn, cells were washed with PBS and lysed in Triton X-100 buffer (50 mM Tris / 150 mM NaCl / 100 mM EDTA / 1% Triton X-100, pH 7.6) containing protease and phosphatase inhibitors for 30 min on ice. The lysates were centrifuged at 12,000 rpm for 30 min, and the soluble supernatant was taken. The remaining pellets were washed with Triton X-100 buffer, followed by centrifugation at 12,000 rpm for 20 min. The supernatants were discarded, and the resulting insoluble pellets were resuspended in laemli buffer containing 1% SDS. Samples were subjected to SDS-PAGE. After blocking with 5% milk and washing process, the membranes were incubated with primary antibodies overnight at 4 °C, followed by washing with PBS-T and incubation with horseradish peroxidase-conjugated secondary antibodies. Immunoreactive bands were detected using ECL reagents (Thermo Fisher Scientific, 32,106). For non-reducing SDS-PAGE, cell lysates were mixed with 4 × laemli buffer containing no 2-mercaptoethanol. For reducing SDS-PAGE, cells were lysed by RIPA buffer (150 mM NaCl, 1% Triton X-100, 1% sodium deoxycholate, 0.1% Tris–HCl, pH 7.5, 2 mM EDTA) and prepared with 5 × protein sample buffer containing 2-mercaptoethanol (Elpis Biotech, EBA-1052). Densitometry of developed bands was analyzed with ImageJ (NIH, Bethesda).

Fc1ccc(COc2cccc(CNCCOCCOCCNc3cccc(-c4cc(-c5ccc6c(c5)OCO6)n[nH]4)c3)c2)cc1 [ATC161, 3-(3-(benzo[d][1,3]dioxol-5-yl)-1H-pyrazol-5-yl)-N-(2-(2-(2-((3-((4-fluorobenzyl)oxy)benzyl)amino)ethoxy)ethoxy)ethyl)aniline]
DC50 ([1]; Triton X-100 insoluble fraction, read-out: half degradation concentration (DC50) of α-syn aggregates): ~0.1 µM and 0.1 µM
degradation of monomeric α-syn ([1]; soluble fraction): No apparent degradation; also recorded: no such degradation was observed
increase in level of LAMP1+ lysosomes [2]: 2.9 fold
lipidation of LC3 in the absence of p62 [3]: failed to induce the lipidation of LC3 into LC3-II
cleaved-PARP1 level (apoptotic process) [4]: efficiently inhibited such an apoptotic process
